Entries after “also recorded” stand apart in the source; their conditions may differ.

In one data set the test system is Male Rj: NMRI mice. The data set can be described thus: Formalin paw test (late phase) in the mouse. Type of data set: in vivo. How it is done:
The method described herein detects analgesic/anti-inflammatory activity, generally used to test compounds for pain relief, in particular diabetic neuropathy or nociceptive neuropathy. See Wheeler-Aceto, et al. (1991) Psychopharmacology 104: 35-44.
Mice were given an intraplantar injection of 5% formalin (25 μl) into the posterior left paw. This treatment induces paw licking in control animals. Mice were briefly observed at 1 minute intervals between 15 and 50 minutes after the injection of formalin and the number of occasions that the mice were observed licking the injected paw was recorded. There were 10 mice per group and the test was performed “blind.”
The experiment included 11 groups. Data was analyzed by comparing treated groups with vehicle control using unpaired Mann-Whitney U tests.
Gabapentin (100 mg/kg i.p.) administered under the same experimental conditions, was used as reference substance. The experiment included several groups. Data was analyzed by comparing treated groups with vehicle control using unpaired Mann-Whitney U tests.

The test system of data set [1] is Male CD-1 mice. As to the kind of experiment: Chung (SNL) neuropathic pain study in mice. Type of data set: in vivo, mouse. To be noted: mice, i.p., SNL. An excerpt:
Male CD-1 mice (25-35 g, Charles River) were used for all studies. Mice were housed in groups of five in Plexiglas chambers with food and water available ad libitum. All animals were maintained on a 12 hr light/dark cycle (lights on at 7:00 AM) in a temperature- and humidity-controlled animal colony. The health status of the animals used in this study was examined on arrival. Only animals in good health were acclimatized to laboratory conditions and used in the study. The acclimation period to the vivarium was a minimum of 7 days. All animal experiments were performed under an approved protocol in accordance with institutional guidelines and in accordance with the Guide for the Care and Use of Laboratory Animals as adopted and promulgated by the National Institutes of Health.
NTP has provided adequate amounts of NTP-2014 and NTP-2026 along with detailed instructions for preparing injection solutions. Gabapentin (Gallipot, St. Paul, Minn.) was dissolved in physiological saline. Injections were made using a 1-mL syringe with a 30-gauge needle at a volume of 10 ml/kg body weight. Animal body weights were measured prior to surgery and then on the morning of Day 7 (post-SNL testing). For i.p. drug administration, each mouse was firmly grasped by the nape of the neck and the tail was tucked between the last two fingers and palm of the technician's hand. The back of the mouse iwasarched slightly backwards exposing the abdominal region. The needle was inserted through the skin and abdominal musculature into the peritoneal cavity just off of the midline. Mice are immediately returned to the testing cage until behavioral testing.
NTP2026 (56, 100 and 180 mg/kg, i.p.); NTP 2014 (32, 56 and 100 mg/kg, i.p.); Gabapentin (100 mg/kg, i.p.); Vehicle Control (10% TPGS in benzoate buffer, i.p.).
SNL surgeries were performed based on the procedures described for rats (Kim and Chung, 1992) and modified for mice (Wang et al., 2001). Anesthesia was maintained with 0.5% halothane in O2 and body temperature was maintained using a heated water blanket. After surgical preparation of the mice, a 1-cm paraspinal incision was made at the level L4-S2. The L5 and L6 spinal nerves were exposed and tightly ligated using a 4-0 silk suture. The ligation was made distal to the dorsal root ganglion but before the fibers joined the sciatic nerve. The incisions were then closed, and animals are allowed to recover. […] Mechanical thresholds were determined by measuring the paw withdrawal threshold to probing with a series of calibrated von Frey filaments as described below.
Non-noxious sensory thresholds of the mice were determined by paw withdrawal […] to probing with a series of calibrated (0.02-2.34 gm on a logarithmic scale) von Frey filaments (“up and down” method) according to Chaplan et al. (1994) and analyzed using a Dixon (1980) nonparametric test. Results are expressed as the mean withdrawal thresholds. Baseline latencies/thresholds were determined prior to surgery, on the morning of Day 7, and then between 20-60 minutes post dosing with the test drugs. The post-drug time corresponds to the time of maximal activity for these compounds in the tail-flick assay.

In the next data set the test system is male Sprague Dawley rats. The data set can be described thus: Taxol-induced peripheral neuropathy (rat), mechanical allodynia (von Frey). It counts as in vivo. The conditions noted are these: gabapentin 100 mg/kg. The source says:
In this study, an animal model of Taxol-induced sensory neuropathy was employed to evaluate the effects of the sponsor's test compounds, for response to tactile sensitivity using von Frey test of mechanical allodynia. […] Therefore, Taxol-induced mechanical allodynia was employed as the measured behavioral endpoint.
The test substance was homogenized and dispersed using a mortar and a pestle in 0.2% hydroxypropylmethylcellulose (HPMC) in physiological saline, which served as the vehicle. Test articles were administered intraperitoneally in dose volumes of 10 mL/kg body weight. Preparations were made freshly for each day of administration.
Prior to test article NTP-2024 and vehicle control group administration, rats were pretreated at 30 minutes and again at 10 minutes prior to test article administration with a general metabolic inhibitor, piperonyl butoxide (150 mg/kg i.p.) in DMSO, at a volume of 1 mL/kg.
The reference article, Gabapentin, was formulated in saline to a concentration of 100 mg/mL and delivered […] at a dose volume of 1 mL/kg body weight (for a dosing concentration of 100 mg/kg).
All animals were administered Taxol, 2 mg/kg, IP at a dose volume of 1 mL/kg, on Days 1, 3, 5 and 7.
On Day 32, all animals received a single intraperitoneal injection of test article or vehicle according to Tables 1 and 2. For group 1 (vehicle), rats were pre-treated with Piperonyl butoxide (150 mg/kg IP, dose volume of 1 mL/kg) at 30 minutes and again at 10 minutes prior to vehicle administration. Four animals in group 3 (NTP-2024) were also pre-treated with Piperonyl butoxide (150 mg/kg IP, dose volume of 1 mL/kg) at 30 minutes and again at 10 minutes prior to vehicle administration. Animals in Groups 2, 3, 4, & 5 were pre-treated with Saline (dose volume of 1 mL/kg, IP) at 30 minutes and again at 10 minutes prior to test article administration. With the exception of animals in group 2, the animals received an IP injection of vehicle or test article 30 min prior to mechanical allodynia testing. Animals were dosed at a volume of 10 mL/kg.
Animals in group 2, received an IP injection of Gabapentin 90 minutes prior to mechanical allodynia testing. Animals were dosed at a volume of 1 mL/kg.
All animals underwent von Frey testing for mechanical allodynia. On testing days, the animals were returned to the chambers and allowed approximately 15 minutes to explore their surroundings prior to testing. A series of filaments were applied to the left hind paw. A 2.0 g filament was first applied to the plantar surface, if the animal responded to the filament (by lifting its paw) then the next smaller filament was applied. […] This is repeated in an “Up down” method for four responses after the first initial change in response.
The original study design used thermal hyperalgesia as the main parameter for testing the ability of the test compounds to ameliorate the pain associated with the Taxol injection. The treatment inclusion was set at a 20% drop from baseline values as determined on Day 28. […] The study design was amended to use mechanical allodynia as the testing parameter. […] This changed the testing days from Day 28 to Day 31 for allodynia confirmation and Day 29 to Day 32 for testing the article efficacy. Additional animals were received to complete the group size designation. These animals were tested for mechanical allodynia only. The study was then further amended to remove the piperonyl butoxide as a pre-treatment for Group 3 (NTP-2024). […] Because this study was conducted in two portions, four (4) animals from Group 3 received the metabolic inhibitor and five (5) received Saline as a pre-treatment.
The group mean results were analyzed versus the vehicle control group using a two way ANOVA, followed by a Bonferroni post-hoc test. Individual groups were tested pre and post dose using a paired t-test.

The subject of data set [2] is Male CD-1 mice. The data set can be described thus: Chung (SNL) neuropathic pain study in mice. Type of data set: in vivo, mouse. The conditions noted are these: high dose group (180 mg/kg NTP-2014; 100 mg/kg NTP-2026; gabapentin 100 mg/kg, i.p.).

Regarding `NCC1(CC(=O)O)CCCCC1` [Gabapentin, reference compound], the “Licking Score % Pain Decrease” value in the data set on Male Rj: NMRI mice (gabapentin 100 mg/kg (584 μmol/kg)) amounted to 63%. Further, the “Licking Score (15 to 50 minutes post-formalin injection) % Change from Control” value in the data set with Male Rj: NMRI mice (gabapentin 100 mg/kg i.p. (584 μmol/kg)) was −63%. Moreover, in the data set with Male CD-1 mice [1], the “Reversal of tactile hypersensitivity” value is on record as “dose-dependent activity”. For the same compound, in the data set on male Sprague Dawley rats, the “Reversal of mechanical allodynia” value is on record as “able to mitigate the mechanical allodynia; also recorded: significantly reverse”. The Sedation entry in the data set with Male CD-1 mice [2] was “minor sedation and incoordination”.

The values are drawn from patent US9682928B2 (NeuroPro Therapeutics, Inc., priority 2009, dated 2017).
